Assay results from patent US5688824A, “Use of leflunomide to prevent or control xenograft rejection” (priority 1996, dated 1997).
“Also recorded” adds a separate entry of the source. Like-named read-outs stand apart in the source and are kept apart here.

Columns and labels:
allogeneic kidney graft = conditions: cited from earlier work
human T-cell = conditions: stimulated by allogeneic lymphocytes, anti-CD3 or anti-CD28 with PMA, or IL-2 or IL-2 with PMA; cited from earlier work
[1] = cited from earlier work
EGF receptor kinase = conditions: cited from earlier work
[2] = system: epidermal growth factor (EGF)-dependent cell growth; conditions: cited from earlier work
SLE in MRL/lpr mice = conditions: cited from earlier work
[3] = system: cardiac allografts, established acute rejection; conditions: cited from earlier work; for mean survival time of the cardiac allografts: 7 days
[4] = to open-ring form A771726; cited from earlier work
[5] = system: intimal thickening in balloon-injured carotids; conditions: 20 mg/kg daily from day 3 pre-transplant to day 13 post-transplant; cited from earlier work
glomerulonephritis = conditions: oral 2 mg/kg/day, prophylactic or therapeutic; cited from earlier work
[6] = system: chronic rejection of rat cardiac allografts; assay: chronic rejection of rat cardiac allografts (LEW to F-344), histologic scoring of arterial intimal thickening; type: in vivo
Description: These rats share major histocompatibility antigens but differ at minor histocompatibility loci. A short course of immunosuppression results in a slow chronic rejection that gradually destroys the graft, with the appearance of reproducible histology similar to the chronic rejection seen in humans.
Donor and recipient animals were anesthetized with Ketamine/Xylazine (Fort Dodge, Iowa) 100/5 mg/kg. […] Cardiac allograft survival was determined by daily abdominal palpation, and rejection was considered complete upon cessation of heart beat.
The three control groups were given no treatment and were sacrificed at designated 30-day intervals to observe the development of chronic rejection. The treatment groups were administered daily doses of leflunomide or leflunomide and CsA according to Table 1 below, beginning at day 30 and continuing to day 60 or day 90. CsA in oral form (Sandimmune, Sandoz Corporation, East Hanover, N.J.) was administered at 2, 5 or 10 mg/kg to rats by gavage.
Upon sacrifice, the heart allograft was removed, serially sectioned into approximately 2-mm slices, and fixed in 10% buffered formalin overnight. The sections were embedded in paraffin and stained with hematoxylin and eosin, Verhoeff's elastin stain and Masson's trichrome stain to evaluate pathologic changes and to score graft arterial intimal thickening. The remaining sections were immunostained using standard indirect avidin-biotin techniques (Vectastain ABC-Elite, Vector Laboratories, Burlingame, Calif.) with monoclonal antibodies against smooth muscle actin (DAKO, Carpin Terra, Calif.) to evaluate intimal smooth muscle proliferation, and with polyclonal antibodies against phosphotyrosine to evaluate tyrosine kinase activity by counting phosphotyrosine positive cells. […] Allospecific antibody titres among the groups were compared using the unpaired Student's t-test.
The sections were examined by light microscopy, and 20 to 70 arteries in each allograft were blindly scored for severity of arterial intimal thickening according to the general standard of Adams et al., supra, using the following histological scores: a score of 0 was a normal artery; a score of 1, intimal thickening up to approximately 50% of the perimeter of the vessel, with less than 20% luminal compromise; a score of 2, intimal thickening involving between 50% and 100% of the perimeter of the vessel, with less than 20% luminal compromise; score of 3, circumferential intimal thickening, with more than 20% but less than 50% luminal compromise; score of 4, circumferential intimal thickening, with more than 50% but less than 80% luminal compromise; score of 5, circumferential intimal thickening, with more than 80% luminal compromise. […] Statistical comparisons of histological scores were performed using the Mann-Whitney U--Wilcoxon Rank Sum W Test.

[7] = system: anti-donor specific IgM and IgG; assay: anti-donor specific IgM and IgG titers by flow cytometry, cardiac xenografts; type: in vivo, rat; conditions: leflunomide alone
Description: Serum samples were obtained from the animals by drawing 0.2 ml of blood from the tail vein at two day intervals, for the first eight days after transplantation, and then at seven day intervals after day 14. Serum samples were stored at -80° C. The anti-donor specific IgM and IgG titers were measured using cervical lymph nodes from hamsters as target cells for flow cytometry. Lymphocytes obtained from the lymph nodes were washed with PBS and suspended at a concentration of 10^7 cells/ml. Aliquots of 50 μl containing ~5×10^5 lymphocytes were incubated with 50 μl of diluted sera (diluted 1:25 in phosphate buffered saline) for 30 minutes at 4° C. and then washed twice in 1 ml of PBS. IgM and IgG antibodies were stained by incubating the washed cells for 30 minutes at 4° C. with 50 μl of PBS containing a mixture of labeled goat antibodies specific for rat IgG and rat IgM (Jackson Immunoresearch Labs, Westgrove, Pa.). After staining, the cells were washed twice, fixed in 1% formalin and analyzed on the BPICS-C flow cytometry (Coulter Company), according to Williams et al., Transplantation, 57:1223-1231 (1994).

[8] = system: rat adjuvant arthritis models and rat allergic encephalitis model; conditions: cited from earlier work
cGvH disease or SLE = conditions: mouse, U.S. Pat. No. 4,965,276; cited from earlier work
skin grafts = conditions: cited from earlier work
cardiac allograft = conditions: cited from earlier work
[9] = system: platelet derived growth factor-receptor (PDGFR) tyrosine kinase; conditions: cited from earlier work

For `Cc1oncc1C(=O)Nc1ccc(C(F)(F)F)cc1` [leflunomide, N-(4-trifluoromethylphenyl)-5-methylisoxazol-4-carboxamide], the toxicity in dogs (allogeneic kidney graft; dog, in vivo) is listed as “limited, however, by toxicity due to the canine's N-acetylation enzyme deficiency”, the survival (allogeneic kidney graft; leflunomide 8 mg/kg daily) is listed as 27 ± 1 days and the survival (allogeneic kidney graft; leflunomide 16 mg/kg daily) is listed as 21 ± 2 days. For the same compound, the “time to rejection after withdrawal of leflunomide” value (allogeneic kidney graft; withdrawn from two dogs after 100 days, combination-treated group) was at most 14 days, the “inhibition of human T-cell proliferation” value (human T-cell) was “inhibit human T-cell proliferation” and the toxicity ([1]; animal studies, extremely high doses) was “liver and cardiac toxicity”. For the same compound, the tolerability ([1]; animals and man) was “well tolerated in animals and man”, the “inhibition of EGF receptor kinase” value (EGF receptor kinase) was “inhibits the intrinsic EGF receptor kinase” and the “inhibition of EGF-dependent cell growth” value [2] was “capable of inhibiting epidermal growth factor (EGF)-dependent cell growth”. For the same compound, the “ability to inhibit SLE relative to Cyclosporine A” value (SLE in MRL/lpr mice; MRL/lpr mice) was “equal or superior to Cyclosporine A (CsA) in ability to inhibit SLE”, the “disease progression, lymphocyte accumulation, T-cell ratio” value (SLE in MRL/lpr mice; MRL/lpr mice) was “stops disease progression and prevents the development of glomerulonephritis” and the “disease progression, lymphocyte accumulation, T-cell ratio” value (SLE in MRL/lpr mice; MRL/lpr mice, listed as Leflunomide) was “suppresses the intense accumulation of lymphocytes in the lymph nodes and spleen of these mice, restores the T-cell helper/suppressor ratio to normal values, and restores the depressed proliferative response of lymphocytes and macrophages”. For the same compound, the animals still alive (SLE in MRL/lpr mice; at the end of 10 weeks, mice with elevated urine protein) was 90%, the prolongation of survival ([3]; 5 mg/kg by gavage, 7- or 14-day course from day of transplantation) was “approximately equal prolongations of survival” and the mononuclear leukocyte infiltration ([3]; started at day 4) was “completely cleared the mononuclear leukocyte infiltration on histological analysis”. The “mean survival time of the cardiac allografts” value ([3]; started at day 4 post-transplantation) was 25.4±1.4 days, the “mean survival time of the cardiac allografts” value ([3]; started at day 6 post-transplantation) was 16.3±8.5 days and the “allospecific IgG response” value ([3]; started day 4) was “The generation of allospecific IgG response was inhibited”. The “allospecific cytotoxic antibody production (primarily IgM)” value ([3]; started day 4) was “abrupt drop to near background levels after 7 days of treatment”, the “reversal of acute rejection” value ([3]; therapy post-transplantation) was “effective in reversing acute rejection as determined by both functional and histological criteria” and the conversion after administration [4] was “rapidly convened to its active open-ring form”. For the same compound, the intimal thickening [5] was “significantly reduced intimal thickening in balloon-injured carotids”, the effect on glomerulonephritis (glomerulonephritis) was “effective in both preventing and curing glomerulonephritis; also recorded: significant decrease in total urinary protein, plasma cholesterol and fibrinogen, as well as decreased deposition of fibrin, immunoglobulin G and complement C3” and the “effect on chronic rejection process” value ([6]; 5 mg/kg (each) from day 30, 10 mg/kg (each) day 60 to 90) was “able to halt the progression of chronic rejection and partially reverse the process of arterial thickening”. The “mononuclear cell infiltration, myocardial fibrosis, smooth muscle proliferation” value ([6]; 5 mg/kg (each) from day 30, 10 mg/kg (each) day 60 to 90, day 90) was “Interstitial mononuclear cell infiltration and myocardial fibrosis were mild”, the “arterial intimal thickening, change vs control” value ([6]; 5 mg/kg (each) from day 30, day 60) was “did not significantly improve by day 60” and the “Histological Scores (mean vascular histologic score)” value (shortened to “Histological Scores”) ([6]; Lef 5 mg/kg day 30 to 60, then 10 mg/kg day 60 to 90, group 8) was 1.38±0.92. The “Histological Scores” value ([6]; Lef 5 mg/kg day 30 to 60, then 10 mg/kg day 60 to 90, group 8, listed as Lef) was 1.4 ± 0.9, the “Histological Scores” value ([6]; Lef 5 mg/kg from day 30 to day 60, group 5, sacrificed day 60) was 1.55±0.53 and the “Histological Scores” value ([6]; Lef 5 mg/kg from day 30 to day 60, group 5, sacrificed day 60, listed as Lef) was 1.6 ± 0.5. For the same compound, the IgG levels [7] was “IgG levels remained at baseline”, the IgM titres [7] was “delayed and slowed the rise of IgM titres, but did not completely suppress IgM rise” and the “anti-inflammatory activity and toxicity” value ([8]; U.S. Pat. No. 4,351,841) was “superior anti-inflammatory activity and decreased toxicity”. The “inhibition of immunopathological processes” value ([8]; two rat adjuvant arthritis models and a rat allergic encephalitis model) was “inhibit immunopathological processes”, the “glomerulonephritis, anti-dsDNA titer, GvH index, T-lymphocyte proliferative ability” value (cGvH disease or SLE) was “prevented development of glomerulonephritis, reduced anti-dsDNA titer, decreased the GvH index (a measure of relative spleen enlargement), and improved the diminished proliferative ability of T-lymphocytes” and the “inhibition of development of cGvH disease or SLE” value (cGvH disease or SLE) was “effective in inhibiting the development of cGvH disease or SLE”. For the same compound, the “skin graft survival time vs untreated” value (skin grafts; 2.5 to 20 mg/kg by gavage for 10 days) was “more than doubled graft survival time compared to untreated animals”, the “skin graft survival, delayed treatment” value (skin grafts; started five to ten days after grafting) was “achieved prolongation of skin graft survival” and the “graft survival vs controls” value (cardiac allograft; 0.63 to 10 mg/kg/day for 7 days) was “significantly prolonged graft survival compared to controls”. The “animals with indefinite graft survival (>100 days)” value (cardiac allograft; 21 days, leflunomide 5 mg/kg/day) was “three of six animals” and the “inhibition of PDGFR tyrosine kinase activity” value [9] was “inhibits the intrinsic EGF receptor kinase as well as other kinases such as platelet derived growth factor-receptor (PDGFR) tyrosine kinase activity”.
